Experimental data from patent publication US20190135747A1, “INDOLE AND INDAZOLE CYANOCINNAMATE COMPOUNDS AND THERAPEUTIC USES THEREOF” (Regents of the University of Minnesota, priority 2016, published 2019).

Key:
Format in all cases: cell-based
MCT1 = biological target: T1, MCT1 (Rattus norvegicus, UniProt P53987); test: MCT lactate inhibition assay, MCT1 in RBE4; settings: RBE4 rat brain endothelial cells
T1 construct: endogenous in cells; host or cells: RBE4 rat brain endothelial cells
T1 sequence (P53987 1-494): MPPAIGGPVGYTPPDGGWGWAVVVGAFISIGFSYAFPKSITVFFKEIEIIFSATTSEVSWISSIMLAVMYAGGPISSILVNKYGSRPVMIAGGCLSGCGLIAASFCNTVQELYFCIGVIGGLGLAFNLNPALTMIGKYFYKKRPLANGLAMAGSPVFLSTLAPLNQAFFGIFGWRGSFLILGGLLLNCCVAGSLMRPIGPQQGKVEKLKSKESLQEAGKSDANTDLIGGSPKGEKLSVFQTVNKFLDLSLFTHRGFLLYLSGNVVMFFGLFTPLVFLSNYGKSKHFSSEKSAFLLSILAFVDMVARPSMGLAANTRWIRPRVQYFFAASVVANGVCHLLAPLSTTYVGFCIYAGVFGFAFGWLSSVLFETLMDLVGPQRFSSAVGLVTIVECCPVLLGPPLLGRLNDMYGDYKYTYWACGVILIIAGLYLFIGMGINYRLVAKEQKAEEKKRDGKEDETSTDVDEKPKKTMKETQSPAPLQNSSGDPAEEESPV
T1 sequence (P26453 140-388 partner limits assumed): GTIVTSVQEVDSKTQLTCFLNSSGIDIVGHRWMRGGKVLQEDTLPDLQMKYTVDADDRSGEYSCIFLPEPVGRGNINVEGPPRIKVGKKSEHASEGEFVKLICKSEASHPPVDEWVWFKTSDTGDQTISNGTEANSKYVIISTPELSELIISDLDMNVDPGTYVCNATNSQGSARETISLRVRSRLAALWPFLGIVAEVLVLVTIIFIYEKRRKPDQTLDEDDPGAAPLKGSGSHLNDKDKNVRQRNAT
Experimental: (§1) Cell line MDA-MB-231 (MCT4 expressing human triple negative breast cancer cell line), cell line MCF-7 (MCT1 expressing estrogen receptor positive human breast cancer cell line), and cell line 4T1 (MCT1 expressing metastatic murine breast cancer cell line) were used for testing the in vitro cytotoxicity of compounds 1-d, 2, and 3 using the MTT assay available from ThermoFisher Scientific. In addition, Compounds 1-d, 2, and 3 were also evaluated for MCT1 inhibition activity in RBE4 (MCT1 expressing rat brain endothelial 4 cell line) and MCT4 inhibition activity in MDA-MB-231 cell lines by measuring the IC50 values using the MCT lactate inhibition assays (Gurrapu S, Jonnalagadda S K, Alam M A, Nelson G L, Sneve M G, Drewes L R, Venkatram R. Mereddy. Monocarboxylate transporter 1 inhibitors as potential anti-cancer agents. ACS. Med. Chem. Lett., 2015, 6, 558-561.).

[1] = tested on: 4T1 (MCT1 expressing metastatic murine breast cancer cell line); test: MTT in vitro cytotoxicity assay, 4T1; settings: Mus musculus, 4T1 cells
Experimental: as §1

MCT4 = biological target: T2, MCT4 (Homo sapiens, UniProt O15427); test: MCT lactate inhibition assay, MCT4 in MDA-MB-231; settings: MDA-MB-231 cells
T2 construct: Cell line MDA-MB-231 (MCT4 expressing human triple negative breast cancer cell line); endogenous in cells; host or cells: MDA-MB-231 human triple negative breast cancer cells
T2 sequence (O15427 2-465 limits assumed): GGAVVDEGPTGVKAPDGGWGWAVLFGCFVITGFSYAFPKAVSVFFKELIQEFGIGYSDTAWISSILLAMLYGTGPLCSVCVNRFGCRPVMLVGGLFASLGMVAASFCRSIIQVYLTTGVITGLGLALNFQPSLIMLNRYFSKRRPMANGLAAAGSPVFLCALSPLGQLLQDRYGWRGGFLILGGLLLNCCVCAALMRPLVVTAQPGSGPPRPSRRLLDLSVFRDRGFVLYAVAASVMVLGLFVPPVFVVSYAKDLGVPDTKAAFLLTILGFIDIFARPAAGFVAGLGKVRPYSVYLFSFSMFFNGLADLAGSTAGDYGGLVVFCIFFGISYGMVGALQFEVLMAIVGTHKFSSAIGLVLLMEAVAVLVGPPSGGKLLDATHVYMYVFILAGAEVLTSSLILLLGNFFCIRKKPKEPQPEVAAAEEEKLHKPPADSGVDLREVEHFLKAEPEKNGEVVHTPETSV
T2 sequence (P35613 140-385 partner limits assumed): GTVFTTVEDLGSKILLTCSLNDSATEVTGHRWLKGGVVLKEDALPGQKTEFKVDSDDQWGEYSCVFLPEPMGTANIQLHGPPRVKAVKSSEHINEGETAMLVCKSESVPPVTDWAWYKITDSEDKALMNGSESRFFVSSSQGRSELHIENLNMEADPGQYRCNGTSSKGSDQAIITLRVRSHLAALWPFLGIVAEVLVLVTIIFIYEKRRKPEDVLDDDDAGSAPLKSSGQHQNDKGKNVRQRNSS
Experimental: as §1

[2] = tested on: MCF-7 (MCT1 expressing estrogen receptor positive human breast cancer cell line); test: MTT in vitro cytotoxicity assay, MCF-7; settings: MCF7, MCF-7 cells
Experimental: as §1

[3] = tested on: MDA-MB-231 (MCT4 expressing human triple negative breast cancer cell line); test: MTT in vitro cytotoxicity assay, MDA-MB-231; settings: MDA-MB-231 cells
Experimental: as §1

Row | IC50 (MCT1) | IC50 (MCT4) | SMILES | IC50 [1] | IC50 [2] | IC50 [3]
1 | 0.47 ± 0.05 µM | 0.57 ± 0.05 µM | N#C/C(=C\c1cn(-c2ccc(NC(=O)Nc3ccc(Cl)c(C(F)(F)F)c3)cc2)c2ccccc12)C(=O)O [Compound 2] | 76.5 ± 4.86 µM | 41.6 ± 20.8 µM | 88.1 ± 17.2 µM
2 | 0.07 ± 0.02 µM | 0.02 ± 0.01 µM | CN(C)c1ccc(-n2cc(/C=C(\C#N)C(=O)O)c3ccccc32)cc1 [Compound 1-d] | 65.4 ± 4.26 µM | > 250 µM | > 250 µM
3 | 0.11 µM | 0.14 ± 0.04 µM | N#C/C(=C\c1cn(-c2ccc(NC(=O)c3ccc(NC(=O)Nc4ccc(Cl)c(C(F)(F)F)c4)cc3)cc2)c2ccccc12)C(=O)O [Compound 3] | > 250 µM | > 250 µM | > 250 µM
